From patent US9114133B2, “Method of improving diastolic dysfunction” (U.S. DEPT. OF VETERANS AFFAIRS, priority 2006, dated 2015)
Marks after values point to notes of the source that are not given here.

What was measured:
isolated single myocytes = assay: Residual sarcomere length of isolated myocytes with BDM; assay type: cell-based, mouse; details: BDM 10 mM
Method: 2,3-Butanedione monoxime (BDM), a cross-bridge inhibitor, was used to measure residual sarcomere length. BDM inhibits the Ca^2+ regulated attachment of the cross-bridges and force-generation of the attached cross-bridges (Reference 16). Isolated single myocytes were loaded on an chamber and perfused with BDM (10 mM) in Tyrode's solution at 37° C. Sarcomere length was again measured while the myocytes were field-stimulated as described above.

[1] = tested on: MnSOD deficient cardiomyocytes; assay: Contraction and relaxation of cardiomyocytes from heterozygous MnSOD knockout mice (IonOptix); assay type: cell-based, mouse; details: BH4 treatment
Method: Echocardiography was used to determine DD in heterozygous MnSOD knockout mice. The mitral annulus longitudinal velocities (E′, and A′) were determined by pulsed-wave tissue Doppler from the apical four-chamber view. Mitochondrial ROS were measured by confocal microscopy and flow cytometry from isolated cardiomyocytes using MitoSOX Red. NO was measured by DAF-FM and by the Griess reaction. Contraction and relaxation impairment were assessed by lonOptix System.

[2] = tested on: DOCA-salt mouse model (diastolic dysfunction) and sham mice; assay: Transthoracic echocardiography, in vivo BH4 treatment in DOCA-salt mice; details: BH4 diet 5 mg BH4/day day 11-18, mean ± SEM
Method: Previously, I have shown that the DOCA-salt mouse model leads to mild hypertension, NOS uncoupling, myocardial oxidative stress, and diastolic dysfunction (Reference 10). A gradual and mild elevation in blood pressure was induced by unilateral nephrectomy, subcutaneous implantation of a controlled release deoxycorticosterone acetate (DOCA) pellet (0.7 mg/d; Innovative Research of America, Sarasota, Fla.), and substituting drinking water with 1.05% saline. Control animals underwent a sham operation, had placebo pellet implantation, and received water without salt.
Mice were divided into two groups which received a control diet (sham N=7; DOCA-salt N=10) and two groups which received a BH4 supplemental diet of 5 mg BH4/day (Research Diets Inc, New Brunswick, N.J.; sham+BH4 N=8; DOCA-salt+BH4 N=8). The supplemental diet began on day 11 after surgery, and continued until day 18, when the mice were analyzed and sacrificed.
Mitral pulse wave Doppler flow and tissue Doppler imaging (TDI) were performed using the Vevo 770 high-resolution in vivo imaging system (Visual Sonics, Toronto, Canada) (Reference 10). Mice were anesthetized with 1-1.5% isoflurane until a heart rate of around 350-390 beats/min was achieved because measures of diastolic function are sensitive to heart rate and loading conditions. M-mode images in the parasternal long axis and the left ventricle (LV) short-axis views at the mid-papillary level were taken. Measurements were averaged from five consecutive beats during expiration. The images for each mouse were recorded for at least 5 s (30-40 cardiac cycles) from which three to five representative cycles with the highest quality imaging were selected. Percent fractional shortening (% FS) was calculated as 100×(LVEDd)−(LVESd)/(LVEDd) and percent LV ejection fraction (% EF) was calculated as 100×[(7/2.4+LVEDd)×LEDd^3]−[(7/2.4+LVESd)×LVESd^3]/[(7/2.4+LVEDd)×LEDd^3]. Doppler measurements were made at the tips of the mitral leaflets for diastolic filling profiles in the apical four-chamber view. Mitral inflow velocities, peak early (E) and late (A) were measured by conventional pulsed-wave Doppler. TDI was used to determine the mitral annulus longitudinal velocities (Sm, E′, and A′) (Reference 10). Baseline images before treatment were acquired to confirm diastolic dysfunction in DOCA-salt mice. Subsequently, the mice were fed with BH4, followed by echocardiography at day 18.

[3] = tested on: isolated ventricular myocytes; assay: Isolated myocyte contraction and relaxation parameters (IonOptix); assay type: cell-based, mouse; details: 1.0 Hz, 10 V, external Ca2+ 1.2 mmol/L
[4] = myocytes from DOCA-salt + BH4 mice

In the case of CC(=O)C(C)=NO [BDM, 2,3-Butanedione monoxime], the Residual sarcomere length (isolated single myocytes; myocytes after BH4 treatment) is reported as “no effect” and the Residual sarcomere length (isolated single myocytes; myocytes of sham and DOCA-salt groups) is reported as “increased”.

C[C@H](O)[C@H](O)[C@H]1CNc2nc(N)[nH]c(=O)c2N1 [BH4, tetrahydrobiopterin] was tested, and the “Relaxation constant (tau)” value [1] was 0.73±0.01, the Resting sarcomere length [1] was 1.77±0.01 μm and the “A′ (tissue Doppler)” value ([2]; DOCA-salt mice) was 15.2 ± 1.0 mm/s. The “EF (ejection fraction)” value ([2]; DOCA-salt mice) was 54.5 ± 5.0%, the “E′ (tissue Doppler)” value ([2]; DOCA-salt mice) was 16.8 ± 1.3†^ mm/s and the “FS (fractional shortening)” value ([2]; DOCA-salt mice) was 26.6 ± 2.9%. For the same molecule, the LVEDD ([2]; DOCA-salt mice) was 3.67 ± 0.14 mm, the LVESD ([2]; DOCA-salt mice) was 2.65 ± 0.21 mm and the “MV A” value ([2]; DOCA-salt mice) was 367.8 ± 48.3 mm/s. The “MV E” value ([2]; DOCA-salt mice) was 555.0 ± 35.1†^ mm/s, the “MV E/A ratio” value ([2]; DOCA-salt mice) was 1.71 ± 0.33 and the Sm ([2]; DOCA-salt mice) was 15.8 ± 1.5. The “A′ (tissue Doppler)” value ([2]; sham mice) was 21.1 ± 1.9 mm/s, the “E/E′ ratio” value ([2]; sham mice) was 34.91 ± 6.81& and the “EF (ejection fraction)” value ([2]; sham mice) was 51.1 ± 2.8%. The “E′ (tissue Doppler)” value ([2]; sham mice) was 24.4 ± 2.2†& mm/s, the “E′/A′ ratio” value ([2]; sham mice) was 1.17 ± 0.06& and the “FS (fractional shortening)” value ([2]; sham mice) was 24.7 ± 1.6%. The LVEDD ([2]; sham mice) was 4.05 ± 0.10 mm, the LVESD ([2]; sham mice) was 3.01 ± 0.11 mm and the “MV A” value ([2]; sham mice) was 357.5 ± 31.7 mm/s. The “MV E” value ([2]; sham mice) was 738.1 ± 31.1†& mm/s, the “MV E/A ratio” value ([2]; sham mice) was 2.28 ± 0.33 and the Sm ([2]; sham mice) was 22.9 ± 1.5. The “Diastolic SL” value [3, 4] was 1.77±0.01 μm, the Relengthening velocity [3, 4] was 2.39 ± 0.18 μm/s and the Sarcomere shortening [3, 4] was 9.48 ± 0.49%. For the same molecule, the Shortening velocity [3, 4] was −2.42 ± 0.14 μm/s, the “Systolic SL” value [3, 4] was 1.60 ± 0.01 μm and the “Time to 50% relengthening” value [3, 4] was 240.3 ± 7.5 ms. The “Time to 50% shortening” value [3, 4] was 47.5 ± 0.7 ms, the “Time to 90% relengthening” value [3, 4] was 300.0 ± 13.4 ms and the “Time to 90% shortening” value [3, 4] was 93.5 ± 1.8 ms. The “Time to peak shortening” value [3, 4] was 146.2 ± 0.3 ms, the “Diastolic SL” value ([3]; myocytes from sham + BH4 mice) was 1.80 ± 0.01#†& μm and the “Relaxation constant, τ” value ([3]; myocytes from sham + BH4 mice) was 0.07 ± 0.00&. For the same molecule, the Relengthening velocity ([3]; myocytes from sham + BH4 mice) was 2.75 ± 0.18#†& μm/s, the Sarcomere shortening ([3]; myocytes from sham + BH4 mice) was 10.64 ± 0.61& % and the Shortening velocity ([3]; myocytes from sham + BH4 mice) was −2.90 ± 0.16#†& μm/s. The “Systolic SL” value ([3]; myocytes from sham + BH4 mice) was 1.61 ± 0.01& μm, the “Time to 50% relengthening” value ([3]; myocytes from sham + BH4 mice) was 204.7 ± 6.0&# ms and the “Time to 50% shortening” value ([3]; myocytes from sham + BH4 mice) was 45.6 ± 0.8 ms. The “Time to 90% relengthening” value ([3]; myocytes from sham + BH4 mice) was 258.7 ± 11.7&# ms, the “Time to 90% shortening” value ([3]; myocytes from sham + BH4 mice) was 87.3 ± 1.8&# ms and the “Time to peak shortening” value ([3]; myocytes from sham + BH4 mice) was 133.6 ± 0.3& ms.
